Laboratory results from patent publication US20260263506A1, “CORNEAL DISORDER TREATMENT AGENT” (M'S SCIENCE CORPORATION, priority 2022, published 2026).
Marks after values point to notes of the source that are not given here.

Tests used:
[1] = test system: HCE-T (immortalized human corneal epithelial) cells; assay: HCE-T cell migration assay, Calcein-AM fluorescence of cells migrated into the stopper zone; type: cell-based; conditions: for Relative fluorescence intensity (%): no-addition control = 100%; for Effect on migration of human corneal epithelial cells (in words): summary statement from both analysis methods
Description: (§1) HCE-T (immortalized human corneal epithelial) cells [isolated and established from human corneal epithelia; obtained from RIKEN Cell Bank] were cultured in DMEM/F12 medium supplemented with 5% fetal bovine serum in a CO2 incubator at 37° C.
(§2) HCE-T cells grown to 60%-80% confluency in a T75 flask were detached with trypsin-EDTA and collected. The collected cells were suspended in fresh DMEM/F12 medium supplemented with fetal bovine serum.
(§3) From this cell suspension, 60,000 cells per well were seeded in a 96-well multiwell-plate, in which each well was fitted with a cell seeding stopper.
(§4) After the plate was incubated overnight at 37° C. in a CO 2 incubator, the cell stoppers were removed, and the cells were washed twice with a serum-free medium. Then, the medium was replaced by a serum-free medium supplemented with the test substance or a control serum-free medium devoid of the test substance, and the cells were cultured for 28 hours.
(§5) The serum-free medium with the test substance used was a medium containing fondaparinux sodium [obtained from Selleck] at a concentration of 0.1% (w/v) or 0.3% (w/v) or a medium containing 0.5% (w/v) sodium chondroitin sulfate (obtained from Tokyo Chemical Industry; average molecular weight, ~30,000).
(§6) The cultured cells were stained with Calcein-AM (obtained from nacalai tesque), and the fluorescence emitted from HCE-T cells that migrated to the zone where the stopper was placed was measured. After the fluorescence intensity was measured, fluorescence microscopic images were acquired and analyzed using a BZ-X analyzer to measure cell migration areas.
A relative fluorescence intensity value is a fluorescence intensity measurement for each test substance group expressed in percentage in reference to the fluorescence intensity of the no-addition group (control) as 100%, indicating the relative level of cell migration compared to the control.
(§7) As in Experiment 1, HCE-T (immortalized human corneal epithelial) cells were used to investigate the effects of test substances on the migration of HCE-T cells. The test substances used were fondaparinux sodium, high-molecular-weight sodium hyaluronate (average molecular weight 887,000), sodium heparan sulfate (average molecular weight 23,000), and low molecular weight heparin (average molecular weight 5,400). Among these test substances, fondaparinux sodium was obtained from Selleck as described above, and all other glycosaminoglycans were obtained from Iwai Chemicals Company. The concentration of each test substance was 0.3% (w/v).

[2] = test system: HCE-T (immortalized human corneal epithelial) cells; assay: HCE-T cell migration assay, cell migration area from fluorescence microscopic images (BZ-X analyzer); type: cell-based; conditions: for Relative cell migration area (%): no-addition control = 100%
Description: as §1, §2, §3, §4, §5, §6
The cell migration areas were calculated (measured) through analysis of images acquired with a fluorescence microscope and were used to calculate areas relative to the no-addition control group (relative migration areas).
A relative migration area value is a relative cell migration area for each test substance group expressed in percentage in reference to the cell migration area of the no-addition control group as 100%.
as §7

[3] = Experiment 1, 0.1% (w/v), serum-free medium, 28 hours, mean and standard error of 3 measurements
[4] = Experiment 1, 0.3% (w/v), serum-free medium, 28 hours, mean and standard error of 3 measurements
[5] = Experiment 2, 0.3% (w/v), as in Experiment 1
[6] = Experiment 2, 0.3% (w/v), mean and standard error of 4 measurements
[7] = Experiment 1, 0.5% (w/v), serum-free medium, 28 hours, mean and standard error of 3 measurements

| Molecule | Relative fluorescence intensity (%) ([1]; Experiment 1, 0.1% (w/v), 28 hours, n=3) | Fluorescence intensity [1, 3] | Relative fluorescence intensity (%) ([1]; Experiment 1, 0.3% (w/v), 28 hours, n=3) | Fluorescence intensity [1, 4] | Fluorescence intensity [1, 5] | Relative fluorescence intensity (%) ([1]; Experiment 2, 0.3% (w/v)) | Effect on migration of human corneal epithelial cells (in words) ([1]; listed as fondaparinux sodium, sodium salt) | Effect on migration of human corneal epithelial cells (in words) ([1]; listed as fondaparinux, sodium salt) | Relative cell migration area (%) ([2]; Experiment 1, 0.1% (w/v), n=3) | Cell migration area (10^4 μm^2) [2, 3] | Relative cell migration area (%) ([2]; Experiment 1, 0.3% (w/v), n=3) | Cell migration area (10^4 μm^2) [2, 4] | Cell migration area (10^4 μm^2) [2, 6] | Relative cell migration area (%) ([2]; Experiment 2, 0.3% (w/v), n=4) | Effect on migration of human corneal epithelial cells (in words) [1] | Relative fluorescence intensity (%) ([1]; Experiment 1, 0.5% (w/v), 28 hours, n=3) | Fluorescence intensity [1, 7] | Relative cell migration area (%) ([2]; Experiment 1, 0.5% (w/v), n=3) | Cell migration area (10^4 μm^2) [2, 7] |
| --- | --- | --- | --- | --- | --- | --- | --- | --- | --- | --- | --- | --- | --- | --- | --- | --- | --- | --- | --- |
| CO[C@H]1OC(COS(=O)(=O)[O-])[C@@H](O[C@@H]2OC(C(=O)[O-])[C@@H](O[C@H]3OC(COS(=O)(=O)[O-])[C@@H](O[C@@H]4OC(C(=O)[O-])[C@@H](O[C@H]5OC(COS(=O)(=O)[O-])[C@@H](O)C(O)C5NS(=O)(=O)[O-])C(O)C4O)C(OS(=O)(=O)[O-])C3NS(=O)(=O)[O-])C(O)C2OS(=O)(=O)[O-])C(O)C1NS(=O)(=O)[O-].[Na+].[Na+].[Na+].[Na+].[Na+].[Na+].[Na+].[Na+].[Na+].[Na+] (stereo partly drawn) [Fondaparinux sodium, methyl O-(2-deoxy-6-O-sulfo-2-sulfoamino-α-D-glucopyranosyl)-(1→4)-O-(β-D-glucopyranosyluronic acid)-(1→4)-O-(2-deoxy-3,6-di-O-sulfo-2-sulfoamino-α-D-glucopyranosyl)-(1→4)-O-(2-O-sulfo-α-L-idopyranosyluronic acid)-(1→4)-2-deoxy-6-O-sulfo-2-sulfoamino-α-D-glucopyranoside sodium salt] | 145.41 ± 10.19% | 0.183 ± 0.013 | 170.1 ± 2.84 % | 0.215 ± 0.004 | 0.290 ± 0.028 | 237.36 ± 22.53 % | promoted migration and stretching of human corneal epithelial cells | strong stimulatory effect | 160.5 ± 6.6% | 102.1 ± 4.2 10^4 μm^2 | 168.4 ± 5.1 % | 107.1 ± 3.2* 10^4 μm^2 | 65.9 ± 6.4 10^4 μm^2 | 169.4 ± 16.4% |  |  |  |  |  |
| High-molecular-weight sodium hyaluronate |  |  |  |  | 0.176 ± 0.028 | 143.67 ± 22.72% |  |  |  |  |  |  | 50.9 ± 17.4 10^4 μm^2 | 130.9 ± 4.5% |  |  |  |  |  |
| Low molecular weight heparin |  |  |  |  | 0.359 ± 0.083 | 293.94 ± 68.25% |  |  |  |  |  |  | 78.4 ± 12.3* 10^4 μm^2 | 201.6 ± 31.6 % | strong stimulatory effect |  |  |  |  |
| Sodium chondroitin sulfate |  |  |  |  |  |  |  |  |  |  |  |  |  |  |  | 89.20 ± 23.97% | 0.112 ± 0.030 | 103.9 ± 18.0% | 66.1 ± 1.1 10^4 μm^2 |
